Measured values: patent US20210093715A1, “ANTI-ANGIOGENESIS THERAPY FOR THE TREATMENT OF BREAST CANCER” (Genentech, Inc., priority 2008, published 2021)
Where two headings read alike, the source gives them in different places.

Legend:
[1] = system: previously untreated locally recurrent or metastatic HER2-negative breast cancer
Text: (§1) The primary objective of the study was to determine the clinical benefit of the addition of bevacizumab to standard chemotherapy regimes for previously untreated metastatic breast cancer, as measured by PFS based on investigator tumor assessment. See, e.g., O'Shaughnessy and Brufsky, (2008), Clinical Breast Cancer, 8(4): 370-373. The trial comprised two study groups that evaluated AVASTIN® with different types of chemotherapies in women who had not previously received chemotherapy for their advanced HER2-negative breast cancer. In the first study group, women received either AVASTIN or placebo in combination with taxane or anthracycline-based chemotherapies. In the second study group, women received either AVASTIN or placebo in combination with capecitabine chemotherapy. The analysis of this example was based on information from 1237 patients. These trials evaluated the efficacy of bevacizumab (AVASTIN®) as therapy for patients previously untreated metastic breast cancer.
(§2) In the RIBBON1 trial, the following treatment protocol was used:
(§3) Arm A: bevacizumab 15 mg/kg IV on day 1 of each 21-day cycle and either cohort 1, cohort 2 or cohort 3;
(§4) Arm B: placebo IV on day 1 of each 21-day cycle and either cohort 1, cohort 2 or cohort 3.
(§5) Cohort 1: Either of the following taxanes administered every 3 weeks
(§6) Cohort 2: Any of the following anthracycline-based combination chemotherapies, for subjects previously untreated with anthracyclines, every 3 weeks:
(§7) Cohort 3: Capecitabine 1000 mg/m^2 oral twice daily on Days 1-14 of each 3-week cycle.
The secondary endpoints included objective response rate (ORR), one-year survival rate, overall survival (OS), and PFS based on IRC assessment and safety. OS is defined as the time from randomization until death from any cause. ORR is defined as the percentage of patients who achieved a complete or partial response confirmed ≥28 days after initial documentation of response. One-year survival rate is assessed between treatment arms using the normal approximation method. ORR in patients with measurable disease at baseline is compared using the stratified Mantel-Haenszel χ2 test. Randomization stratification factors are included in all stratified analyses.

[2] = system: previously untreated locally recurrent or metastatic HER2-negative breast cancer; assay: RIBBON1 randomized phase III trial, efficacy (PFS, ORR, OS) of bevacizumab or placebo with chemotherapy; format: in vivo, human; conditions: for % of deaths: overall survival analysis; for ORR (%) / ORR, number of patients with objective response: patients with measurable disease; for median duration of objective response: among responders; for PFS compared to chemotherapies alone (in words): bevacizumab added to capecitabine, taxane or anthracycline-based chemotherapy, 1st-line
Text: as §1, §2, §3, §4, §5
Paclitaxel protein-bound particles (Abraxane®) 260 mg/m^2 IV
as §6
FEC: 5-fluorouracil 500 mg/m^2 IV, epirubicin 90-100 mg/m^2 IV and cyclophosphamide 500 mg/m^2 IV on Day 1
FAC: 5-fluorouracil 500 mg/m^2 IV, doxorubicin 50 mg/m^2 IV and cyclophosphamide 500 mg/m^2 IV on Day 1
AC: Doxorubicin 50-60 mg/m^2 IV and cyclophosphamide 500-600 mg/m^2 IV on Day 1
EC: Epirubicin 90-100 mg/m^2 IV and cyclophosphamide 500-600 mg/m^2 IV on Day 1
as §7
All subjects had histologically or cytologically confirmed adenocarcinoma of the breast, subjects may have had either measureable (per the Response Evaluation Criteria in Solid Tumors (RECIST)) or non-measureable locally recurrent or metastatic disease. The locally recurrent disease was not amenable to resection with curative intent.
The trial was conducted worldwide (at least 22 countries) and accrued 1237 subjects/patients (Taxane (T): 307; Anthracycline (Anthra): 315; and Capecitabine (Cap): 615).
The primary endpoint of the study was progression free survival (PFS), defined as the time from randomization to disease progression or to death, based on investigator assessment. Kaplan-Meier methodology can be used to estimate median PFS for each treatment arm. In certain embodiments, the hazard ratio for PFS will be estimated using a stratified Cox regression model with the same stratification factors used in the stratified log-rank test. Analyses of PFS in each cohort is performed at the two-sided α=0.05 level. Time-to-event data are compared between treatment arms using a stratified log-rank test. The Kaplan-Meier method is used to estimate duration of time-to-event data. The 95% confidence intervals for median time-to-event are computed using the Brookmeyer-Crowley method. The HR for time-to-event data are estimated using a stratified Cox regression model.
The secondary endpoints included objective response rate (ORR), one-year survival rate, overall survival (OS), and PFS based on IRC assessment and safety. OS is defined as the time from randomization until death from any cause. ORR is defined as the percentage of patients who achieved a complete or partial response confirmed ≥28 days after initial documentation of response. One-year survival rate is assessed between treatment arms using the normal approximation method. ORR in patients with measurable disease at baseline is compared using the stratified Mantel-Haenszel χ2 test.

[3] = system: previously treated metastatic breast cancer; conditions: capecitabine + bevacizumab vs capecitabine alone; cited from earlier work
metastatic breast cancer [4] = conditions: docetaxel + bevacizumab (7.5 and 15 mg/kg q3w) vs docetaxel alone; cited from earlier work
metastatic breast cancer [5] = conditions: weekly paclitaxel + bevacizumab vs paclitaxel alone; cited from earlier work
[6] = Cap cohort, BV arm = bevacizumab + capecitabine, PL arm = placebo + capecitabine, investigator assessment
[7] = Cap cohort, BV or placebo + capecitabine
[8] = Cap cohort, second PFS figure of b186, assessor not stated (FIG. 2 shows INV and IRC)
[9] = T/Anthra cohort, BV or placebo + taxane/anthracycline

CCCCCOC(=O)Nc1nc(=O)n([C@@H]2O[C@H](C)[C@@H](O)[C@H]2O)cc1F [Cap, capecitabine, reference compound]
AEs leading to death (excludes AEs related to metastatic breast cancer progression) ([1]; Cape cohort): 2.5%
AEs leading to study drug (PL or BV) discontinuation ([1]; female, human, in vivo): 11.9%
SAEs ([1]; female, human, in vivo): 18.9%
Selected AEs (previously shown to be associated with bevacizumab) ([1]; female, human, in vivo): 9.0%
1-yr survival rate (%) ([2]; Cap cohort): 74%
PFS Median (months) [2, 6]: 5.7 months
Median OS (months) [2, 7]: 21.2 months
% of deaths ([2]; Cap cohort): 35%
ORR (%) [2, 7]: (23.6%)
ORR, number of patients with objective response [2, 7]: 38
PFS [2, 8]: 6.2 months
median duration of objective response ([2]; Capecitabine cohort): 7.2 months

BV: recombinant humanized anti-VEGF monoclonal antibody, human IgG1 framework with CDRs from murine antibody A.4.6.1
PFS (primary objective) [3]: failed to meet its primary objective of improving PFS
overall response rate (ORR) [3]: higher
AEs leading to study drug (PL or BV) discontinuation ([1]; Anthra cohort): 14.3%
SAEs ([1]; Anthra cohort): 22.4%
AEs leading to study drug (PL or BV) discontinuation ([1]; Cape cohort): 11.9%
SAEs ([1]; Cape cohort): 24.3%
AEs leading to death (excludes AEs related to metastatic breast cancer progression) ([1]; Taxane cohort): 3.4%
AEs leading to study drug (PL or BV) discontinuation ([1]; Taxane cohort): 24.1%
SAEs ([1]; Taxane cohort): 41.4%
Safety ([1]; bevacizumab + chemotherapy, all cohorts): consistent with results of prior bevacizumab trials
progression-free survival (PFS) (metastatic breast cancer [4]): longer
progression-free survival (PFS) (metastatic breast cancer [5]): significantly longer
mPFS, mo (median PFS) ([2]; Anthra subgroup, BV or placebo + anthracycline-based chemotherapy): 9.2 mo
PFS HR (95% CI) ([2]; Anthra subgroup, BV vs PL): 0.55 (0.40-0.74)
PFS Median (months) [2, 6]: 8.6 months
Median OS (months) [2, 7]: 29.0 months
PFS HR (95% CI) ([2]; Cap cohort, bevacizumab 15 mg/kg q3w + capecitabine vs placebo + capecitabine, investigator assessment): 0.688
OS (HR, 95% CI) ([2]; Cap cohort, bevacizumab + capecitabine vs placebo + capecitabine): 0.85 (0.63-1.14)
OS (HR, 95% CI) ([2]; Cap cohort, bevacizumab + capecitabine vs placebo + capecitabine, listed as B): 0.847
% of deaths ([2]; Cap cohort): 30%
ORR (%) [2, 7]: (35.4%)
PFS [2, 8]: 9.7 months
median duration of objective response ([2]; Capecitabine cohort): 9.2 months
PFS Median (months) ([2]; T/Anthra cohort, BV arm = bevacizumab + taxane/anthracycline, PL arm = placebo + taxane/anthracycline, investigator assessment): 9.2 months
Median OS (months) [2, 9]: 25.2 months
PFS HR (95% CI) ([2]; T/Anthra cohort, bevacizumab 15 mg/kg q3w + taxane/anthracycline vs placebo + taxane/anthracycline, investigator assessment): 0.644
OS (HR, 95% CI) ([2]; T/Anthra cohort, bevacizumab + taxane/anthracycline vs placebo + taxane/anthracycline): 1.03 (0.77-1.38)
OS (HR, 95% CI) ([2]; T/Anthra cohort, bevacizumab + taxane/anthracycline vs placebo + taxane/anthracycline, listed as B): 1.032
% of deaths ([2]; T/Anthra cohort): 34%
ORR (%) [2, 9]: (51.3%)
ORR, number of patients with objective response [2, 9]: 177
PFS ([2]; T/Anthra cohort, second PFS figure of b186, assessor not stated (FIG. 3 shows INV and IRC)): 10.7 months
mPFS, mo (median PFS) ([2]; Taxane subgroup, BV or placebo + docetaxel or Abraxane): 9.2 mo
PFS HR (95% CI) ([2]; Taxane subgroup, BV vs PL): 0.75 (0.56-1.01)
PFS compared to chemotherapies alone (in words) [2]: statistically-significant improvement in PFS
PFS compared to chemotherapies alone (in words) ([2]; listed as AVASTIN®): increased the time women lived without their disease advancing
median duration of objective response ([2]; taxane/anthracycline cohort): 8.3 months
